The assay concerns MV-4-11 cells. The assay can be described thus: Gene expression microarray analysis (Affymetrix PrimeView) and GSEA. In kind it is cell-based, human. More on the design: RFU PODN (11730768_x_at) / Fold change /veh PODN (11730768_x_at) / RFU LINC00158 (11744669_a_at) / Fold change /veh LINC00158 (11744669_a_at) / RFU DUSP10 (11751237_a_at) / Fold change /veh DUSP10 (11751237_a_at) / RFU ID3 (11757404_x_at) / Fold change /veh ID3 (11757404_x_at) / RFU PLEKHG5 (11737974_s_at) / Fold change /veh PLEKHG5 (11737974_s_at) / RFU LRRC4B (11730491_at) / Fold change /veh LRRC4B (11730491_at) / RFU GIMAP4 (11747438_a_at) / Fold change /veh GIMAP4 (11747438_a_at) / RFU KRT8 (11758183_x_at) / Fold change /veh KRT8 (11758183_x_at) / RFU CNN1 (11734310_a_at) / Fold change /veh CNN1 (11734310_a_at) / RFU VPS37D (11726825_at) / Fold change /veh VPS37D (11726825_at) / RFU C10orf10 (11716522_x_at) / Fold change /veh C10orf10 (11716522_x_at) / RFU KIR2DL2 /// KIR2DL4 /// KIR2DL5A /// KIR2DL5B /// KIR2DS1 /// KIR2DS2 /// KIR2DS3 /// KIR2DS4 /// KIR3DL3 /// KIR3DL3 /// KIR3DS1 (11738374_at) / Fold change /veh KIR2DL2 /// KIR2DL4 /// KIR2DL5A /// KIR2DL5B /// KIR2DS1 /// KIR2DS2 /// KIR2DS3 /// KIR2DS4 /// KIR3DL3 /// KIR3DL3 /// KIR3DS1 (11738374_at) / RFU C1QL1 (11718748_at) / Fold change /veh C1QL1 (11718748_at) / RFU TMPRSS4 (11747572_a_at) / Fold change /veh TMPRSS4 (11747572_a_at) / RFU HAMP (11756126_x_at) / Fold change /veh HAMP (11756126_x_at) / RFU RNFT2 (11725882_a_at) / Fold change /veh RNFT2 (11725882_a_at) / RFU NR4A2 (11747474_a_at) / Fold change /veh NR4A2 (11747474_a_at) / RFU ABCC12 (11746883_a_at) / Fold change /veh ABCC12 (11746883_a_at) / RFU TMEM136 (11760407_x_at) / Fold change /veh TMEM136 (11760407_x_at) / RFU CLDN22 /// WWC2 (11732394_at) / Fold change /veh CLDN22 /// WWC2 (11732394_at) / RFU HLA-DPB1 (11760878_x_at) / Fold change /veh HLA-DPB1 (11760878_x_at) / RFU SPINT1 (11716480_a_at) / Fold change /veh SPINT1 (11716480_a_at) / RFU GAP43 (11754022_s_at) / Fold change /veh GAP43 (11754022_s_at) / RFU A4GNT (11735810_at) / Fold change /veh A4GNT (11735810_at) / RFU PRB3 (11715151_x_at) / Fold change /veh PRB3 (11715151_x_at) / RFU TUBB4B (11761932_at) / Fold change /veh TUBB4B (11761932_at) / RFU CAPN14 (11732068_a_at) / Fold change /veh CAPN14 (11732068_a_at) / RFU TMCC2 (11721928_a_at) / Fold change /veh TMCC2 (11721928_a_at) / RFU IRGQ (11745062_a_at) / Fold change /veh IRGQ (11745062_a_at) / RFU FAM174B (11720279_a_at) / Fold change /veh FAM174B (11720279_a_at) / RFU TMPRSS4 (11748680_a_at) / Fold change /veh TMPRSS4 (11748680_a_at) / RFU FAM212B (11763350_a_at) / Fold change /veh FAM212B (11763350_a_at) / RFU PLEKHG5 (11743358_a_at) / Fold change /veh PLEKHG5 (11743358_a_at) / RFU ZSCAN30 (11745921_a_at) / Fold change /veh ZSCAN30 (11745921_a_at) / RFU CMKLR1 (11741424_a_at) / Fold change /veh CMKLR1 (11741424_a_at) / RFU LOC101060620 /// MAPK8IP1 (11723275_at) / Fold change /veh LOC101060620 /// MAPK8IP1 (11723275_at) / RFU SPTSSB (11747773_x_at) / Fold change /veh SPTSSB (11747773_x_at) / RFU PRSS12 (11739890_at) / Fold change /veh PRSS12 (11739890_at) / RFU BIN1 (11741810_x_at) / Fold change /veh BIN1 (11741810_x_at) / RFU WNT11 (11732464_a_at) / Fold change /veh WNT11 (11732464_a_at) / RFU C10orf10 (11716521_a_at) / Fold change /veh C10orf10 (11716521_a_at) / RFU C5orf56 (11738089_at) / Fold change /veh C5orf56 (11738089_at) / RFU CYB561 (11721691_x_at) / Fold change /veh CYB561 (11721691_x_at) / RFU ANKRD19P (11752326_a_at) / Fold change /veh ANKRD19P (11752326_a_at) / RFU OR2T12 /// OR2T33 /// OR2T8 (11738714_s_at) / Fold change /veh OR2T12 /// OR2T33 /// OR2T8 (11738714_s_at) / RFU VCAN (11748164_a_at) / Fold change /veh VCAN (11748164_a_at) / RFU JSRP1 (11732532_at) / Fold change /veh JSRP1 (11732532_at) / RFU KRTAP10-11 (11738290_x_at) / Fold change /veh KRTAP10-11 (11738290_x_at) / RFU MYO3A (11730013_a_at) / Fold change /veh MYO3A (11730013_a_at) / RFU EBF3 (11725865_a_at) / Fold change /veh EBF3 (11725865_a_at) / RFU CAMK2N1 (11719241_x_at) / Fold change /veh CAMK2N1 (11719241_x_at) / RFU C5orf56 (11738088_a_at) / Fold change /veh C5orf56 (11738088_a_at) / RFU OLFML3 (11715873_a_at) / Fold change /veh OLFML3 (11715873_a_at) / RFU LOC100653217 /// NTM (11731650_a_at) / Fold change /veh LOC100653217 /// NTM (11731650_a_at) / RFU MAPK11 (11762145_a_at) / Fold change /veh MAPK11 (11762145_a_at) / RFU FIZ1 (11724087_x_at) / Fold change /veh FIZ1 (11724087_x_at) / RFU OASL (11726364_x_at) / Fold change /veh OASL (11726364_x_at) / RFU SOX15 (11748057_x_at) / Fold change /veh SOX15 (11748057_x_at) / RFU CD79A (11719716_a_at) / Fold change /veh CD79A (11719716_a_at) / RFU HIST1H1D (11736915_at) / Fold change /veh HIST1H1D (11736915_at) / RFU CASKIN2 (11723855_a_at) / Fold change /veh CASKIN2 (11723855_a_at) / RFU LOC730098 (11760151_x_at) / Fold change /veh LOC730098 (11760151_x_at) / RFU OR4N2 (11742367_at) / Fold change /veh OR4N2 (11742367_at) / RFU PRRT2 (11749266_a_at) / Fold change /veh PRRT2 (11749266_a_at) / RFU SNX32 (11753110_a_at) / Fold change /veh SNX32 (11753110_a_at) / RFU CDHR5 (11726645_a_at) / Fold change /veh CDHR5 (11726645_a_at) / RFU RCAN1 (11760418_a_at) / Fold change /veh RCAN1 (11760418_a_at) / RFU FAM167A (11723789_a_at) / Fold change /veh FAM167A (11723789_a_at) / RFU FAM26E (11764081_at) / Fold change /veh FAM26E (11764081_at) / RFU ISYNA1 (11749810_s_at) / Fold change /veh ISYNA1 (11749810_s_at) / RFU ACY1 (11761880_at) / Fold change /veh ACY1 (11761880_at) / RFU 11764098_at / Fold change /veh 11764098_at / RFU SAMD14 (11745864_x_at) / Fold change /veh SAMD14 (11745864_x_at) / RFU NPB (11741838_a_at) / Fold change /veh NPB (11741838_a_at) / RFU TMPRSS6 (11731388_a_at) / Fold change /veh TMPRSS6 (11731388_a_at) / RFU KRTAP10-2 (11738614_at) / Fold change /veh KRTAP10-2 (11738614_at) / RFU ARHGAP8 /// PRR5-ARHGAP8 (11727945_x_at) / Fold change /veh ARHGAP8 /// PRR5-ARHGAP8 (11727945_x_at) / RFU KRTAP5-7 /// NADSYN1 (11734609_at) / Fold change /veh KRTAP5-7 /// NADSYN1 (11734609_at) / RFU RASL12 (11751679_a_at) / Fold change /veh RASL12 (11751679_a_at) / RFU CDKN2B (11736163_a_at) / Fold change /veh CDKN2B (11736163_a_at) / RFU PRF1 (11729649_at) / Fold change /veh PRF1 (11729649_at) / RFU, ZNF638 /// ZNF638-IT1 / Fold change vs veh, ZNF638 /// ZNF638-IT1 / RFU, PANK3 / Fold change vs veh, PANK3 / RFU, SH3YL1 / Fold change vs veh, SH3YL1 / RFU, ZEB2 / Fold change vs veh, ZEB2 / RFU, NRIP1 / Fold change vs veh, NRIP1 / RFU, PTTG1IP / Fold change vs veh, PTTG1IP / RFU, CAPN2 / Fold change vs veh, CAPN2 / RFU, MED14 / Fold change vs veh, MED14 / RFU, SNORA58 / Fold change vs veh, SNORA58 / RFU, C1orf63 / Fold change vs veh, C1orf63 / RFU, LRRFIP1 / Fold change vs veh, LRRFIP1 / RFU, NDUFAF7 / Fold change vs veh, NDUFAF7 / RFU, SLC12A2 / Fold change vs veh, SLC12A2 / RFU, IBTK / Fold change vs veh, IBTK / RFU, ESF1 / Fold change vs veh, ESF1 / Fold change vs veh, TMEM50B / RFU, TAOK1 / Fold change vs veh, TAOK1 / RFU, ACBD3 / Fold change vs veh, ACBD3 / RFU, TMA16 / Fold change vs veh, TMA16 / RFU, RWDD3 / Fold change vs veh, RWDD3 / RFU, BCAT1 / Fold change vs veh, BCAT1 / RFU, EDEM3 / Fold change vs veh, EDEM3 / RFU, TMEM33 / Fold change vs veh, TMEM33 / RFU, WDR75 / Fold change vs veh, WDR75 / RFU, AHCTF1 / Fold change vs veh, AHCTF1 / RFU, TFRC / Fold change vs veh, TFRC / RFU, ZDHHC17 / Fold change vs veh, ZDHHC17 / RFU, NOM1 / Fold change vs veh, NOM1 / RFU, ARL8B / Fold change vs veh, ARL8B / RFU, ZBTB11 / Fold change vs veh, ZBTB11 / RFU, TAMM41 / Fold change vs veh, TAMM41 / RFU, KIAA1704 /// LOC100996395 / Fold change vs veh, KIAA1704 /// LOC100996395 / RFU, ING1 / Fold change vs veh, ING1 / RFU, TRMT61B / Fold change vs veh, TRMT61B / RFU, FUBP3 / Fold change vs veh, FUBP3 / RFU, TP53 / Fold change vs veh, TP53 / RFU, TNKS2 / Fold change vs veh, TNKS2 / RFU, ZFP14 / Fold change vs veh, ZFP14 / RFU, ACTR2 / Fold change vs veh, ACTR2 / RFU, PPP3R1 / Fold change vs veh, PPP3R1 / RFU, PIK3R1 / Fold change vs veh, PIK3R1 / RFU, HNRNPA1 / Fold change vs veh, HNRNPA1 / RFU, RNF170 / Fold change vs veh, RNF170 / RFU, ZNF28 / Fold change vs veh, ZNF28 / RFU, RNGTT / Fold change vs veh, RNGTT / RFU, OGT / Fold change vs veh, OGT / RFU, BRD1 / Fold change vs veh, BRD1 / RFU, MARS / Fold change vs veh, MARS / RFU, ZNF655 / Fold change vs veh, ZNF655 / RFU, FAHD1 / Fold change vs veh, FAHD1 / RFU, BDP1 / Fold change vs veh, BDP1 / RFU, LRRCC1 / Fold change vs veh, LRRCC1 / RFU, ARID1A / Fold change vs veh, ARID1A / RFU, ZNF146 / Fold change vs veh, ZNF146 / RFU, ZNF330 / Fold change vs veh, ZNF330 / RFU, GPN3 / Fold change vs veh, GPN3 / RFU, C9orf123 / Fold change vs veh, C9orf123 / RFU, N4BP2L2 / Fold change vs veh, N4BP2L2 / RFU, ARFIP1 / Fold change vs veh, ARFIP1 / RFU, FAM179B / Fold change vs veh, FAM179B / RFU, BCL10 / Fold change vs veh, BCL10 / RFU, UHRF1BP1L / Fold change vs veh, UHRF1BP1L / RFU, BET1 / Fold change vs veh, BET1 / RFU, CNOT2 / Fold change vs veh, CNOT2 / RFU, ZNF268 / Fold change vs veh, ZNF268 / Fold change vs veh, ZNF507 / RFU, DGCR2 / Fold change vs veh, DGCR2 / RFU, WDSUB1 / Fold change vs veh, WDSUB1 / Fold change vs veh, HSP90B1 /// MIR3652 / RFU, ADSS / Fold change vs veh, ADSS / RFU, GK / Fold change vs veh, GK / RFU, ZNF148 / Fold change vs veh, ZNF148 / RFU, TAF9 / Fold change vs veh, TAF9 / RFU, SLC1A5 / Fold change vs veh, SLC1A5 / RFU, SLMO2 / Fold change vs veh, SLMO2 / RFU, ABCC4 / Fold change vs veh, ABCC4 / RFU, LOC101060439 /// RAP1B / Fold change vs veh, LOC101060439 /// RAP1B / RFU, RFX7 / Fold change vs veh, RFX7 / RFU, GTPBP10 / Fold change vs veh, GTPBP10 / RFU, CNEP1R1 / Fold change vs veh, CNEP1R1 / RFU, BIVM-ERCC5 /// ERCC5 / Fold change vs veh, BIVM-ERCC5 /// ERCC5 / RFU, ILF3 / Fold change vs veh, ILF3 / RFU 11762660_at / Fold change /veh 11762660_at / RFU VCAN (11757783_s_at) / Fold change /veh VCAN (11757783_s_at) / RFU DDX43 (11728927_at) / Fold change /veh DDX43 (11728927_at) / RFU KRT8 (11758188_x_at) / Fold change /veh KRT8 (11758188_x_at) / RFU NKD1 (11759106_at) / Fold change /veh NKD1 (11759106_at) / RFU SRD5A1 (11742802_a_at) / Fold change /veh SRD5A1 (11742802_a_at) / RFU TPSAB1 /// TPSB2 (11721975_s_at) / Fold change /veh TPSAB1 /// TPSB2 (11721975_s_at) / RFU GSTM3 (11746129_a_at) / Fold change /veh GSTM3 (11746129_a_at) / RFU IL23R (11737362_x_at) / Fold change /veh IL23R (11737362_x_at) / RFU TMEM51 (11727254_a_at) / Fold change /veh TMEM51 (11727254_a_at) / RFU PIWIL2 (11732686_x_at) / Fold change /veh PIWIL2 (11732686_x_at) / RFU ORM1 (11744905_x_at) / Fold change /veh ORM1 (11744905_x_at) / RFU CCDC152 (11743942_at) / Fold change /veh CCDC152 (11743942_at) / RFU ECM1 (11717891_a_at) / Fold change /veh ECM1 (11717891_a_at) / RFU IL23R (11748794_a_at) / Fold change /veh IL23R (11748794_a_at) / RFU TNFAIP8L3 (11732012_x_at) / Fold change /veh TNFAIP8L3 (11732012_x_at) / RFU MBOAT4 (11741988_at) / Fold change /veh MBOAT4 (11741988_at) / RFU 11764193_at / Fold change /veh 11764193_at / RFU TMEM53 (11763286_at) / Fold change /veh TMEM53 (11763286_at) / RFU MAGEB2 (11727129_at) / Fold change /veh MAGEB2 (11727129_at) / RFU TMEM200A (11744735_a_at) / Fold change /veh TMEM200A (11744735_a_at) / RFU CCDC152 (11751479_a_at) / Fold change /veh CCDC152 (11751479_a_at) / RFU FAM211A (11726209_a_at) / Fold change /veh FAM211A (11726209_a_at) / RFU RGS16 (11746705_a_at) / Fold change /veh RGS16 (11746705_a_at) / RFU VCAN (11755009_s_at) / Fold change /veh VCAN (11755009_s_at) / RFU RHOB (11743442_s_at) / Fold change /veh RHOB (11743442_s_at) / RFU RGS16 (11720943_a_at) / Fold change /veh RGS16 (11720943_a_at) / RFU RGS16 (11720944_at) / Fold change /veh RGS16 (11720944_at) / RFU, VPS4B / Fold change vs veh, VPS4B / RFU, CREB1 / Fold change vs veh, CREB1 / RFU, DNAJC13 / Fold change vs veh, DNAJC13 / RFU, GNAQ / Fold change vs veh, GNAQ / RFU, CDK5R1 / Fold change vs veh, CDK5R1 / RFU, ZRANB3 / Fold change vs veh, ZRANB3 / RFU, CUL4A / Fold change vs veh, CUL4A / RFU, CCNY / Fold change vs veh, CCNY / RFU, UFL1 / Fold change vs veh, UFL1 / RFU, COG3 / Fold change vs veh, COG3 / RFU, DIAPH2 / Fold change vs veh, DIAPH2 / RFU, SKA2 / Fold change vs veh, SKA2 / RFU, AFF3 / Fold change vs veh, AFF3 / RFU, LMF1 / Fold change vs veh, LMF1 / RFU, IPO11 / Fold change vs veh, IPO11 / RFU, DFFB / Fold change vs veh, DFFB / RFU, FOXP1 / Fold change vs veh, FOXP1 / RFU, CARD8 / Fold change vs veh, CARD8 / RFU, STRN3 / Fold change vs veh, STRN3 / RFU, ADK / Fold change vs veh, ADK / RFU, RASSF2 / Fold change vs veh, RASSF2 / RFU, WIPF1 / Fold change vs veh, WIPF1 / RFU, LARP1B / Fold change vs veh, LARP1B / RFU, RASA1 / Fold change vs veh, RASA1 / RFU, RB1 / Fold change vs veh, RB1 / RFU, PPFIA1 / Fold change vs veh, PPFIA1 / RFU, MAT2A / Fold change vs veh, MAT2A / RFU, CCT5 / Fold change vs veh, CCT5 / RFU, WDR92 / Fold change vs veh, WDR92 / RFU, CUX1 / Fold change vs veh, CUX1 / RFU, TTC7A / Fold change vs veh, TTC7A / RFU, TMEM135 / Fold change vs veh, TMEM135 / RFU, DEPTOR / Fold change vs veh, DEPTOR / RFU, CPM / Fold change vs veh, CPM / RFU, DNAJB6 / Fold change vs veh, DNAJB6 / RFU, CACNA2D3 / Fold change vs veh, CACNA2D3 / RFU, DTX4 / Fold change vs veh, DTX4 / RFU, TFCP2 / Fold change vs veh, TFCP2 / RFU, GMCL1 /// GMCL1P1 / Fold change vs veh, GMCL1 /// GMCL1P1 / RFU, AEBP2 / Fold change vs veh, AEBP2 / RFU, SNHG1 /// SNORD22 /// SNORD25 /// SNORD26 /// SNORD27 /// SNORD28 /// SNORD29 /// SNORD31 / Fold change vs veh, SNHG1 /// SNORD22 /// SNORD25 /// SNORD26 /// SNORD27 /// SNORD28 /// SNORD29 /// SNORD31 / Fold change (Aza/veh), C12orf56 (ProbeSet 11735607_a_at) / Fold change (ACY-1035/veh), C12orf56 (ProbeSet 11735607_a_at) / Fold change (Aza/veh), FGFR1OP (ProbeSet 11751329_s_at) / Fold change (ACY-1035/veh), FGFR1OP (ProbeSet 11751329_s_at) / Fold change (Aza/veh), VPS36 (ProbeSet 11739960_a_at) / Fold change (ACY-1035/veh), VPS36 (ProbeSet 11739960_a_at) / RFU SYPL1 (11715823_x_at) / Fold change /veh SYPL1 (11715823_x_at) / RFU IGFBP7 (11715501_s_at) / Fold change /veh IGFBP7 (11715501_s_at) / RFU REEP3 (11722064_at) / Fold change /veh REEP3 (11722064_at) / RFU IGLL1 (11728026_x_at) / Fold change /veh IGLL1 (11728026_x_at): dose or concentration left out as unconfirmed. Conditions: MV-4-11 cells, 48 hours.

With `Nc1ccc(-c2cccs2)cc1NC(=O)c1ccc2c(c1)cc(C1CC1)n2CCN1CCOCC1` [ACY-1035], the “Fold change /veh JSRP1 (11732532_at)” value is reported as 0.91.

Values taken from paper PMC5218480 (PLoS ONE, 2017).
